Here are results for two compounds from article PMC6290023 (Scientific Reports, 2018).

Peptide text beside a SMILES is read from it.

In one series the test system is tMCAo model in mice. The settings on record: cited from earlier work. The method, then: As we have previously shown that intravenous injection of MHP1 (150 μL, 2 mg/ml), started from 6 hrs after tMCAo and followed by subcutaneous injection with Alzet pump (200 μL, 2 mg/ml) for 24 h, is effective, we studied whether a lower dose of MHP1-AcN was effective in reducing ischemic injury.

Series [1] can be described thus: Stability of MHP1 in mouse serum (HPLC/MS). The format is in vitro ADME. The settings on record: mouse (CD-1(ICR)) serum, 200 μg/mL MHP1, 37 °C, HPLC UV 210 nm, mean ± SD. How it is done:
Mouse (CD-1(ICR)) serum was obtained from KAC (Kyoto, Japan) and stored below −15 °C until use. MHP1 (2 mg/mL in ultrapure water) was spiked in mouse serum on ice to obtain a final concentration of 200 μg/mL. The serum was incubated at 37 °C and aliquots of the reaction mixture collected at the incubation times 0, 10, 30, and 60 min. Each aliquot was deproteinized with the addition of an ice-cold solvent (acetonitrile: methanol: acetic acid = 500:500:1). The mixtures were left at −20 °C for 20 minutes and stored on ice. After the addition of 1% acetic acid, the mixture was vigorously vortexed and centrifuged (12000 × g, 4 °C, 10 min). The supernatant was injected into the HPLC system and analyzed by reversed-phase chromatography with a water–acetonitrile (0.1% trifluoroacetic acid) linear gradient elution. MHP1 was detected by ultraviolet light at 210 nm.

Series [2] has as its system mouse osteoclast precursor cells. The settings on record: cited from earlier work. The text has this:
(§1) To solve this problem, we developed a novel peptide “microglial healing peptide1 (MHP1)”, which is a partial peptide of RANKL, to inhibit […] inflammation without activating osteoclast. The binding sites of RANKL for its receptor RANK responsible for osteoclastogenesis were not included in the MHP1 sequence, but other binding sites that are unrelated to osteoclastogenesis (DE and EF loops) were included. […] The sequence of MHP1 is “[…]” and we demonstrat ...

A further series has as its system TLR2, 7, 8. The settings on record: cited from earlier work.
Text: as §1

The subject of another series is LPS-stimulated MG6 cells. The settings on record: peptide incubated at 37 °C for 24 h; cited from earlier work. The method, then: This might be a result of the key sequence of MHP1 being preserved owing to N-terminus acetylation, which generally makes the peptide resistant to protease degradation. The difference in causing sedimentation at 37 °C for 24 h between MHP1-Ac and MHP1-AcN was dependent on the existence of C-terminal amidation, which has been reported to promote the stabilization of the secondary structure of the peptide.

Series [3] concerns FeCl3-induced thrombosis model in CCA. The series can be described thus: FeCl3-induced thrombosis model in CCA, thrombolysis with tPA. The format is in vivo. The settings on record: mouse, tPA 10 mg/kg 30 min post-CCA occlusion. How it is done:
The ischemic damage was evaluated at 48 h after MCAo in sections stained with cresyl violet. Coronal sections (12 μm thickness) were made at −1.4, −0.7, 0, 0.7 and 1.4 mm from the bregma, mounted on the stereomicroscope and photographed. The volume of the infarct was calculated by the sum of each area of all sections corrected by cerebral edema and multiplied by the thickness of the slices. In the experiment of tPA-induced hemorrhage, PE10-catheter was placed in the right internal jugular vein at 6 h after ischemia. The nylon suture was then removed and 10% of the MHP-AcN mixture (150 µg/mice) and tPA (10 mg/kg) were injected followed by continuous injection of residual mixture of MHP1-AcN and tPA using a syringe pump (UNIVENTOR 400 ANAESTHESIA UNIT, ZTN, MALTA). In the experiment of FeCl3 -induced thrombosis model in CCA, a piece of filter paper soaked in 7.5% FeCl3 was placed on the right CCA for 1 min and it was rinsed with saline. Blood flow was recorded by using a laser speckle blood flow imager (OMEGAZONE OZ-2, OMEGAWAVE, INC., Tokyo, Japan). tPA (10 mg/kg) or mixture of MHP1-AcN (150 μg/mice) and tPA was started to be administered at 30 min after CCA occlusion.

Usually share remaining stands for what is left of the initial amount, in per cent. Consider `CC[C@H](C)[C@H](NC(=O)[C@H](CO)NC(=O)[C@@H](NC(=O)[C@H](CCCCN)NC(=O)[C@@H](NC(=O)[C@@H](NC(=O)[C@H](Cc1ccc(O)cc1)NC(=O)[C@@H](NC(=O)[C@H](CCSC)NC(=O)[C@@H](N)CC(C)C)C(C)C)C(C)C)C(C)C)[C@@H](C)O)C(=O)N[C@@H](CCCCN)C(=O)N[C@H](C(=O)N1CCC[C@H]1C(=O)N[C@@H](CO)C(=O)N[C@@H](CO)C(=O)N[C@@H](Cc1c[nH]cn1)C(=O)N[C@@H](CC(N)=O)C(=O)N[C@@H](CC(C)C)C(=O)N[C@@H](CCSC)C(=O)N[C@@H](CCCCN)C(=O)NCC(=O)NCC(=O)N[C@@H](CO)C(=O)N[C@H](C(=O)N[C@@H](CCCCN)C(=O)N[C@@H](CC(N)=O)C(=O)N[C@@H](Cc1c[nH]c2ccccc12)C(=O)N[C@@H](CO)C(=O)NCC(=O)N[C@@H](CC(N)=O)C(=O)O)[C@@H](C)O)[C@@H](C)CC` [MHP1] (H-LMVYVVKTSIKIPSSHNLMKGGSTKNWSGN-OH), for which the “efficacy in tMCAo” value in the series with tMCAo model in mice (i.v. 150 μL, 2 mg/ml from 6 hrs after tMCAo, then s.c. Alzet pump 200 μL, 2 mg/ml for 24 h) is “effective”. For the same compound, the “ischemic injury in tMCAO model” value in the series on tMCAo model in mice (intracerebroventricularly 4 h, or intravenously 4 or 6 h post-ischemia) was “reduced”. For the same compound, the amount remaining at 10 min, 200 μg/mL in series [1] (10 min, read-out: residual MHP1 remaining intact in mouse serum) was found to be 83 ± 5.9%. For the same compound, the “residual MHP1 remaining intact in mouse serum” value in series [1] (30 min) is recorded as 50.3 ± 3.6%. Also, the amount remaining at 0.5 h, 200 μg/mL in series [1] (30 min, read-out: residual MHP1 remaining intact in mouse serum) came out at 50%. Besides, in series [1] (60 min, read-out: residual MHP1 remaining intact in mouse serum), the share remaining at 1 h, 200 μg/mL was 27.5 ± 3.2%. Moreover, in series [2], the “effect on RANKL-induced osteoclast activation” value is reported as “inhibited RANKL-induced osteoclast activation” and the “effect on osteoclast activation (peptide alone)” value is “did not affect osteoclast activation”. Also, the “effect on TLR2, 7, 8-induced inflammations” value in the series with TLR2, 7, 8 is given as “inhibited”. The “anti-inflammatory effects after incubation at 37 °C for 24 h” value in the series with LPS-stimulated MG6 cells is listed as “loses its anti-inflammatory effects”.

Consider “tPA: tissue plasminogen activator, thrombolytic used in acute ischemic stroke”, for which the “time from tPA application to clot lysis (recanalization)” value in series [3] is “approximately 20 min”.
